Consider 1 compound from paper PMC5627750 (International Journal of Nanomedicine, 2017).

For orientation: AUC(0-inf) means the area under the concentration-time curve extrapolated to infinity. What is called AUC(0-t) is exposure summed from dosing to a finite time, without extrapolation to infinity. Higher therefore signals more exposure. As usually defined, the Vd is a proportionality between amount in the body and measured concentration, not a real space. As a reminder, the clearance is the volume of plasma or blood freed of the substance per unit of time. The low end stands for a low capacity for elimination, the high end for a high capacity for elimination. What is called half-life is the time needed for the level to fall by half in the phase considered. Lower therefore signals fast loss.

The format of data set [1] is physicochemical. Particulars: pH 7.4.
For another data set, the system named is MI rat models. More on the design: species or system Sprague-Dawley rats. The settings on record: in vivo, iv, 10 mg/kg.
The conditions of data set [2]: male, Sprague-Dawley, rat, in vivo, 10 mg/kg.
The nature of a further data set: in vivo. The settings on record: male, Sprague-Dawley, rat, iv, 10 mg.

Consider `COc1cc2c(c(OC)c1OC)-c1c(cc3c(c1OC)OCO3)CC(C)C(C)C2` (centres unmarked) [Sch B solution, Schisandrin B], for which the “time to complete release of Sch B” value in data set [1] is on record as ≤ 2 h. For the same compound, the infarct size with MI rat models is on record as 36.5%. Besides, in data set [2], the “time until cleared from the circulation” value was ≤ 4 h. In addition, in the data set “in vivo”, the AUC(0-inf) was found to be 13700 ± 1540 ng·h/mL, the AUC(0-t) turned out to be 12400 ± 1310 ng·h/mL, the Vd was 18.5 ± 2.61 L/kg and the clearance is 65.7 mL/min/kg. In addition, the half-life in “in vivo” is 55.8 ± 5.4 min.
